One experiment has as its target C. elegans Slo-1a (Caenorhabditis elegans, UniProt Q95V25). As to conditions: pE50 (negative decadic logarithm of EC50), CHO cells expressing C. elegans Slo-1a, voltage sensitive dye.
For experiment [1], the system named is Dirofilaria immitis microfilariae. Description: In vitro assay 3: Dirofilaria immitis microfilariae (DIROIM L1), motility. As to conditions: 72 h, read-out: EC50 (reduction of motility), 72 h incubation.
Experiment [2] deals with Nippostrongylus brasiliensis. Description: In vitro assay 2: Nippostrongylus brasiliensis (NIPOBR), acetylcholine esterase readout. The conditions noted are these: read-out: activity (reduction of AChE compared to negative control); for inhibition at 10 µg/mL: 10 μg/ml; for inhibition at 1 µg/mL: 1 μg/ml. The procedure: In Vitro Assay 2: Nippostrongylus brasiliensis (NIPOBR)
Adult Nippostrongylus brasiliensis were washed with saline buffer containing 100 U/ml penicillin, 0.1 mg/ml streptomycin and 2.5 μg/ml amphotericin B. Test compounds were dissolved in DMSO and worms were incubated in medium in a final concentration of 10 μg/ml (10 ppm) respectively 1 μg/ml (1 ppm). An aliquot of the medium was used to determine the acetylcholine esterase activity in comparison to a negative control. The principle of measuring acetylcholine esterase as readout for anthelmintic activity was described in Rapson et al (1986) and Rapson et al (1987).

Where only a bound is given, the exact number is not on record here.

Chain of C. elegans Slo-1a (Q95V25 whole entry): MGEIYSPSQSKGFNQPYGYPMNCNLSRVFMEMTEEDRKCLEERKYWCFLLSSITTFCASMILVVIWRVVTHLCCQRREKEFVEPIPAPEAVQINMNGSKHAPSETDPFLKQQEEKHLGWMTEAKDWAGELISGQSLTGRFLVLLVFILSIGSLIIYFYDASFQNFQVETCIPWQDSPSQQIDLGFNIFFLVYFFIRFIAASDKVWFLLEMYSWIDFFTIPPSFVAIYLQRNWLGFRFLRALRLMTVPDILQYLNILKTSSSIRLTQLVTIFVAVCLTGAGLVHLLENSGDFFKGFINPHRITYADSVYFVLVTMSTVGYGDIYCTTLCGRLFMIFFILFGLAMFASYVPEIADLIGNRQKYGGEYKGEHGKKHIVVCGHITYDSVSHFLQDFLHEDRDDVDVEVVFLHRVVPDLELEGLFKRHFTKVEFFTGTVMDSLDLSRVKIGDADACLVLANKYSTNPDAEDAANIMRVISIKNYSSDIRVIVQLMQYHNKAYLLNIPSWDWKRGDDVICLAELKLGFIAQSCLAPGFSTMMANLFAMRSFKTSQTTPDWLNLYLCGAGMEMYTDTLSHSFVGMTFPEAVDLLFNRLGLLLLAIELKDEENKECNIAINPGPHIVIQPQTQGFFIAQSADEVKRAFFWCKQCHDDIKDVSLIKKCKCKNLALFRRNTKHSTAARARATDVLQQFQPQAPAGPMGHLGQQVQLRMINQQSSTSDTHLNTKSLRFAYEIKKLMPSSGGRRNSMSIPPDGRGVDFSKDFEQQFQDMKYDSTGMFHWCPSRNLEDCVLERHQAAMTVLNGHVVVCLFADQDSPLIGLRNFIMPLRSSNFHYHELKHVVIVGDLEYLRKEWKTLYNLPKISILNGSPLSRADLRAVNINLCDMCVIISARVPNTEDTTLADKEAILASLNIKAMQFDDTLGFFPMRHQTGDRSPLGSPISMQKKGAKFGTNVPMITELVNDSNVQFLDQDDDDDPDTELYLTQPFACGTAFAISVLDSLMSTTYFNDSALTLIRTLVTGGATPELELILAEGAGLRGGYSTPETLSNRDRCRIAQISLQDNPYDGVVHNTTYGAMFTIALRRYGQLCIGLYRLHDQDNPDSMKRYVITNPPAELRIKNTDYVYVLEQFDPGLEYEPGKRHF

Consider `CN(C)c1c(C(=O)N[C@H]2CCOc3ccccc32)cnc2c(-c3ccc4ncn(C)c4c3)cccc12` [Example 71], for which the EC50 at C. elegans Slo-1a was 31.6 to 316 nM; in experiment [1] it was less than 1 µg/mL. The inhibition at 10 µg/mL in experiment [2] was greater than 80%.

On to `Cc1ncc(-c2cccc3c(N(C)C)c(C(=O)N[C@H]4CCOc5ccccc54)cnc23)s1` [Example 456], for which the EC50 was 31.6 to 316 nM on C. elegans Slo-1a and less than 1 µg/mL in experiment [1].

For the compound `O=C(N[C@H]1CCOc2ccccc21)c1cnc2c(-c3cc(Cl)cc(Cl)c3)cccc2c1N1CCC[C@@H]1CO` [Example 287], the EC50 at C. elegans Slo-1a was 3.16 to 31.6 nM; in experiment [1], less than 10 µg/mL. Further, the inhibition at 1 µg/mL in experiment [2] is greater than 80%.

As for `CN(C)c1c(C(=O)NC2CCOc3c(Br)cccc32)cnc2c(-c3cc(Cl)cc(Cl)c3)cccc12` (stereo not drawn) [Example 634], the half-maximal effective concentration (EC50) on C. elegans Slo-1a was 31.6 to 316 nM; in experiment [1], less than 0.1 µg/mL. In addition, the inhibition at 1 µg/mL in experiment [2] is greater than 80%.

In the case of `O=C(N[C@H]1CCc2ccccc21)c1cnc2c(-c3cc(Cl)cc(Cl)c3)cccc2c1N1CCC[C@@H]1C(=O)O` [Example 299], the EC50 at C. elegans Slo-1a was 31.6 to 316 nM; in experiment [1], less than 1 µg/mL.

Consider `Cc1nc2c(-c3cccc(Cl)c3Cl)cccc2c(N(C)C)c1C(=O)N[C@H]1CCOc2ccccc21` [Example 481, 8-(2,3-dichlorophenyl)-N-[(4S)-3,4-dihydro-2H-chromen-4-yl]-4-(dimethylamino)-2-methylquinoline-3-carboxamide], for which the concentration giving a half-maximal response (EC50) at C. elegans Slo-1a is 3.16 to 31.6 nM; in experiment [1] it was less than 10 µg/mL.

Take `CN(C)c1c(C(=O)N[C@H]2CCOc3ccccc32)cnc2c(-c3ccc(C#N)s3)cccc12` [Example 389]: the EC50 at C. elegans Slo-1a was 31.6 to 316 nM; in experiment [1], less than 10 µg/mL.

With `O=C(N[C@H]1CCOc2ccccc21)c1cnc2c(-c3cc(Cl)cc(Cl)c3)cccc2c1C1CCNC1` (mixture of isomers) [Example 519], the half-maximal effective concentration (EC50) at C. elegans Slo-1a is 31.6 to 316 nM; in experiment [1] it was less than 10 µg/mL.

As for `O=C(N[C@H]1CCOc2ccccc21)c1cnc2c(-c3cc(Cl)cc(Cl)c3)c(O)ccc2c1N1CCOCC1` [Example 616], the concentration for a half-maximal effect (EC50) at C. elegans Slo-1a is less than 3.16 nM; in experiment [1] it was less than 0.1 µg/mL.

As to `CC(C)(C)OC(=O)[C@@H]1CCCN1c1c(C(=O)N[C@H]2CCOc3ccccc32)cnc2c(-c3cc(Cl)cc(Cl)c3)cccc12` [Example 242], the values for the concentration giving a half-maximal response (EC50) (on C. elegans Slo-1a; in experiment [1]) were 31.6 to 316 nM and less than 1 µg/mL, respectively.

For `C=C(C)c1c(C(=O)N[C@H]2CCOc3ccccc32)cnc2c(-c3cc(Cl)cc(Cl)c3)cccc12` [Example 317, 8-(3,5-dichlorophenyl)-N-[(4S)-3,4-dihydro-2H-chromen-4-yl]-4-(prop-1-en-2-yl)quinoline-3-carboxamide], the EC50 was 3.16 to 31.6 nM at C. elegans Slo-1a and less than 0.1 µg/mL in experiment [1].

Regarding `O=C(N[C@H]1CCOc2ccccc21)c1cnc2c(-c3cc(Cl)cc(Cl)c3)cccc2c1Sc1ccccn1` [Example 363], the EC50 is 316 to 5010 nM on C. elegans Slo-1a and less than 10 µg/mL in experiment [1]. Moreover, the inhibition at 10 µg/mL in experiment [2] is greater than 80%.

For the compound `O=C(N[C@H]1CCc2ccccc21)c1cnc2c(-c3cc(Cl)cc(Cl)c3)cccc2c1N1CC(O)C1` [Example 102], the EC50 at C. elegans Slo-1a is 3.16 to 31.6 nM; in experiment [1] it was less than 1 µg/mL.

As for `O=C(N[C@H]1CCOc2ccccc21)c1cnc2c(-c3cc(Cl)cc(Cl)c3)cccc2c1Cl` [Example 4, 4-chloro-8-(3,5-dichlorophenyl)-N-[(4S)-3,4-dihydro-2H-chromen-4-yl]quinoline-3-carboxamide], the EC50 is 3.16 to 31.6 nM at C. elegans Slo-1a and less than 0.1 µg/mL in experiment [1].

With `COC(=O)c1cc(-c2cccc3c(N4CCOCC4)c(C(=O)N[C@H]4CCOc5ccccc54)cnc23)c2ocnc2c1` [Example 216], the results for the EC50 (on C. elegans Slo-1a; in experiment [1]) were 31.6 to 316 nM and less than 1 µg/mL, respectively.

For `COc1ccc(F)cc1-c1cccc2c(N3CCC(O)C3)c(C(=O)N[C@H]3CCOc4ccccc43)cnc12` (mixture of isomers) [Example 270], the concentration giving a half-maximal response (EC50) was 3.16 to 31.6 nM at C. elegans Slo-1a and less than 0.1 µg/mL in experiment [1].

For the compound `O=C(N[C@H]1CCOc2ccccc21)c1cnc2c(-c3cc(Cl)ccc3F)cc(O)cc2c1N1CCOCC1` [Example 626], the EC50 on C. elegans Slo-1a is 3.16 to 31.6 nM; in experiment [1], less than 0.1 µg/mL. Besides, the inhibition at 1 µg/mL in experiment [2] is greater than 80%.

Consider `CN(C)C(=O)c1c(C(=O)N[C@H]2CCOc3ccccc32)cnc2c(-c3cc(Cl)cc(Cl)c3)cccc12` [Example 585], for which the EC50 is 3.16 to 31.6 nM at C. elegans Slo-1a and less than 1 µg/mL in experiment [1]. For the same compound, the inhibition at 1 µg/mL in experiment [2] was greater than 80%.

The compound `CC(C)(C)OC(=O)[C@@H]1CCCN1c1c(C(=O)N[C@H]2CCOc3ccccc32)cnc2c(-c3cc(Cl)cc(Cl)c3)cccc12` [Example 243, tert-butyl 1-{8-(3,5-dichlorophenyl)-3-[(4S)-3,4-dihydro-2H-chromen-4-ylcarbamoyl]quinolin-4-yl}-L-prolinate] yielded a half-maximal effective concentration (EC50) at C. elegans Slo-1a of 316 to 5010 nM.

As for `O=C(N[C@H]1CCc2ccccc21)c1cnc2c(-c3cc(Cl)cc(Cl)c3)cccc2c1OCC1CCCC1` [Example 348], the concentration giving a half-maximal response (EC50) on C. elegans Slo-1a is 3.16 to 31.6 nM; in experiment [1], less than 1 µg/mL.

In the case of `O=C(N[C@H]1CCc2ccccc21)c1cnc2c(-c3cccc(Cl)c3)cccc2c1Cl` [Example 6], the EC50 at C. elegans Slo-1a is 3.16 to 31.6 nM; in experiment [1], less than 0.1 µg/mL.

Take `O=C(N[C@H]1CCOc2ccccc21)c1cnc2c(-c3cc(Cl)cc(Cl)c3)cccc2c1CO` [Example 592]: the EC50 at C. elegans Slo-1a fell in the range of 316 to 5010 nM.

As for `CN(C)c1c(C(=O)NC2CCOc3ccc(Br)cc32)cnc2c(-c3cc(Cl)cc(Cl)c3)cccc12` (stereo not drawn) [Example 580], the EC50 on C. elegans Slo-1a was 316 to 5010 nM; in experiment [1], less than 1 µg/mL.

Consider `Cn1cc(-c2c(C(=O)N[C@H]3CCOc4ccccc43)cnc3c(-c4cc(Cl)cc(Cl)c4)cccc23)c(=O)n(C)c1=O` [Example 654], for which the figures for the EC50 (on C. elegans Slo-1a; in experiment [1]) were 31.6 to 316 nM and less than 1 µg/mL, respectively.

For the compound `CCOC(=O)C(C#N)c1c(C(=O)N[C@H]2CCOc3ccccc32)cnc2c(-c3cc(Cl)cc(Cl)c3)cccc12` (stereo partly drawn) [Example 354, ethyl cyano{8-(3,5-dichlorophenyl)-3-[(4S)-3,4-dihydro-2H-chromen-4-ylcarbamoyl]quinolin-4-yl}acetate], the concentration for a half-maximal effect (EC50) was 31.6 to 316 nM on C. elegans Slo-1a and less than 1 µg/mL in experiment [1].

Consider `CC(C)(C)OC(=O)[C@@H]1CCCN1c1c(C(=O)N[C@H]2CCc3ccccc32)cnc2c(-c3cc(Cl)cc(Cl)c3)cccc12` [Example 241], for which the values for the EC50 (on C. elegans Slo-1a; in experiment [1]) were 31.6 to 316 nM and less than 1 µg/mL, respectively.

`O=C(N[C@H]1CCOc2ccccc21)c1cnc2c(-c3cc(Cl)cc(Cl)c3)cccc2c1N1CCC(F)(F)CC1` [Example 398]: the concentration for a half-maximal effect (EC50) on C. elegans Slo-1a is less than 3.16 nM; in experiment [1], less than 10 µg/mL.

With `COc1cc(F)c(-c2cccc3c(N4CCOCC4)c(C(=O)N[C@H]4CCOc5ccccc54)cnc23)cc1F` [Example 230], the values for the EC50 (on C. elegans Slo-1a; in experiment [1]) were 31.6 to 316 nM and less than 1 µg/mL, respectively.

`CC1CN(c2c(C(=O)N[C@H]3CCc4ccccc43)cnc3c(-c4cc(Cl)cc(Cl)c4)cccc23)C1` [Example 120]: the half-maximal effective concentration (EC50) was 31.6 to 316 nM on C. elegans Slo-1a and less than 10 µg/mL in experiment [1].

Take `CCOC(=O)[C@@H]1CCCN1c1c(C(=O)N[C@H]2CCOc3ccccc32)cnc2c(-c3cc(Cl)cc(Cl)c3)cccc12` [Example 320]: the half-maximal effective concentration (EC50) at C. elegans Slo-1a is 3.16 to 31.6 nM; in experiment [1] it was less than 1 µg/mL.

In turn, `CN(C)c1c(C(=O)NC2COCc3c(F)cccc32)cnc2c(-c3cc(Cl)cc(Cl)c3)cccc12` (stereo not drawn) [Example 665] showed a concentration for a half-maximal effect (EC50) at C. elegans Slo-1a of 31.6 to 316 nM.

On to `O=C(N[C@H]1CCOc2ccccc21)c1cnc2c(-c3cc(Cl)cc(Cl)c3)cccc2c1CCO` [Example 593], for which the EC50 on C. elegans Slo-1a fell in the range of 3.16 to 31.6 nM.

These data come from US10889573B2, “Anthelmintic quinoline-3-carboxamide derivatives” (Bayer Animal Health GMBH, priority 2016, dated 2021).
